The target in test [1] is T1, PDGFRβ (Homo sapiens, UniProt P09619).
T1 construct: expressed in transfected cells; host or cells: CHO cells
Put plainly: PDGFRβ cell-based assay (ELISA, phosphor-/total PDGFRβ in transfected CHO cells). The note with it: compound at 100 nM; CHO cells transfected with full length PDGFRβ; FBS stimulation; read-out: % PDGFRβ kinase activity remains. An excerpt:
A standard cell-based assay for PDGFRβ kinase activity can be used to test or screen the compounds of this invention and to identify PDGFRβ antagonists. In this example, ELISA kits (R&D Systems, Inc., Minneapolis, Minn. 55413, USA) were used.
The activity of PDGFRβ in cells depended on its autophosphorylation level by various factors including growth factors. In order to induce the cell to produce PDGFRβ, full length of PDGFRβ sequence was cloned into PC-DNA3.1 vector, the plasmid was then transfected into CHO cells. After 48 hours, the expression of PDGFRβ in transfected CHO cells was confirmed by regular western blotting.
A compound to be tested was first dissolved in DMSO to a concentration of 10 mM and stored at −20° C. One day before the screening, CHO cells transfected with full length PDGFRβ plasmid were grown in DMEM medium without the presence of serum. On the day of screening procedure, the compounds with various concentration in DMSO (from 0.5 nM to 500 nM) were added into DMEM medium, two hours later, 20% of FBS (Fetal Bovine Serum) was added into the medium to stimulate the production of phosphor-PDGFRβ. Cell lysate from approximately 5×10^5 transfected CHO cells were reacted with anti-phosphor PDGFRβ or anti-total PDGFRβ antibody in 96 well plates, in the presence of detection antibody. The phosphor-PDGFRβ or total PDGFRβ were detected with Streptavidin-HRP (R&D Systems), followed by chemiluminescent detection. The level of PDGFRβ kinase activity was quantified as the ratio between the amount of phosphor- and that of total PDGFRβ proteins.

Test [2] concerns the target T2, c-Met (Homo sapiens, UniProt P08581).
T2 construct: expressed in transfected cells; host or cells: CHO cells
The experiment in a line: c-Met cell-based assay (ELISA, phosphor-/total c-Met in transfected CHO cells, HGF stimulated). As to conditions: compound at 100 nM; CHO cells transfected with full length c-Met; HGF 100 ng/mL. An excerpt: A standard cell-based assay for c-Met kinase activity can be used to test or screen the compounds of this invention and to identify c-Met antagonists. In this example, ELISA kits (R&D Systems, Inc., Minneapolis, Minn. 55413, USA) were used.
The activity of c-Met in cells depended on its autophosphorylation level by it specific growth factor-Hepatocyte growth factor (HGF). In order to induce the cell to produce c-Met, full length of c-Met sequence was cloned into PC-DNA3.1 vector, the plasmid was then transfected into CHO cells. After 48 hours, the expression of c-Met in transfected CHO cells was confirmed by regular western blotting.
A compound to be tested was first dissolved in DMSO to a concentration of 10 mM and stored at −20° C. One day before the screening, CHO cells transfected with full length c-Met plasmid were grown in DMEM medium without the presence of serum. On the day of screening procedure, the compounds with various concentration in DMSO (from 0.5 nM to 500 nM) were added into DMEM medium, two hours later, Hepatocyte growth factor (HGF) was added into the medium at the concentration of 100 ng/mL to stimulate the production of phosphor-c-Met. Cell lysate from approximately 5×10^5 transfected CHO cells were reacted with anti-phosphor c-Met or anti-total c-Met antibody in 96 well plates, in the presence of detection antibody. The phosphor-c-Met or total c-Met were detected with Streptavidin-HRP (R&D Systems), followed by chemiluminescent detection. The level of c-Met kinase activity was quantified as the ratio between the amount of phosphor- and that of total c-Met proteins.

Counter-ions that a name gives are not always drawn. A value given as a limit tells only on which side of the number the result lay.

T1 sequence (P09619 33-1106): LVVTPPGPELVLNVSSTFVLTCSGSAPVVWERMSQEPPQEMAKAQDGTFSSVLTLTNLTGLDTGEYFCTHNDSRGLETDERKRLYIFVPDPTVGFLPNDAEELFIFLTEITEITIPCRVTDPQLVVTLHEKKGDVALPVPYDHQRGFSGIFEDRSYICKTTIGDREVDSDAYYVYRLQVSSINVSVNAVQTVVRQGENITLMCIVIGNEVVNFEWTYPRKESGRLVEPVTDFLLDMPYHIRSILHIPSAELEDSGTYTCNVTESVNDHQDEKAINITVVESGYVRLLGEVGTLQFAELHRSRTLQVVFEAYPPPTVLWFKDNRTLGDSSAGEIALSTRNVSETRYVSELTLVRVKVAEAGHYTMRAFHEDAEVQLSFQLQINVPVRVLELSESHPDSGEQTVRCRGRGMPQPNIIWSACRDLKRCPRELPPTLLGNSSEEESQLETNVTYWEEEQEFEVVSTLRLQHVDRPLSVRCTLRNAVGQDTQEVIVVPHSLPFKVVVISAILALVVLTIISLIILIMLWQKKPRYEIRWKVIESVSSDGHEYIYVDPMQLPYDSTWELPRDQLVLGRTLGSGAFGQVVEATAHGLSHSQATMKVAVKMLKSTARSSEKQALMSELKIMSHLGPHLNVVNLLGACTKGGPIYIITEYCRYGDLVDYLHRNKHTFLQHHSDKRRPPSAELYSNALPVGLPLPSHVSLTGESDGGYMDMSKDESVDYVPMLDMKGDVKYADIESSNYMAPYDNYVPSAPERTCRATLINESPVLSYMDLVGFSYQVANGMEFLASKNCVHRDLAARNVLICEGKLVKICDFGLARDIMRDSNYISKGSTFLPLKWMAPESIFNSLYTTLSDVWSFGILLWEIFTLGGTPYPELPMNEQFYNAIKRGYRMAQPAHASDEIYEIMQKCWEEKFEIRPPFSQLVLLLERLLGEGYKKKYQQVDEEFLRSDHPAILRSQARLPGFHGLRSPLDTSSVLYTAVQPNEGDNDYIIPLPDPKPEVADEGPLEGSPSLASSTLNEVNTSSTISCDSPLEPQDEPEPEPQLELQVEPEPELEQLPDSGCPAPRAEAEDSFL
T2 sequence (P08581 25-1390): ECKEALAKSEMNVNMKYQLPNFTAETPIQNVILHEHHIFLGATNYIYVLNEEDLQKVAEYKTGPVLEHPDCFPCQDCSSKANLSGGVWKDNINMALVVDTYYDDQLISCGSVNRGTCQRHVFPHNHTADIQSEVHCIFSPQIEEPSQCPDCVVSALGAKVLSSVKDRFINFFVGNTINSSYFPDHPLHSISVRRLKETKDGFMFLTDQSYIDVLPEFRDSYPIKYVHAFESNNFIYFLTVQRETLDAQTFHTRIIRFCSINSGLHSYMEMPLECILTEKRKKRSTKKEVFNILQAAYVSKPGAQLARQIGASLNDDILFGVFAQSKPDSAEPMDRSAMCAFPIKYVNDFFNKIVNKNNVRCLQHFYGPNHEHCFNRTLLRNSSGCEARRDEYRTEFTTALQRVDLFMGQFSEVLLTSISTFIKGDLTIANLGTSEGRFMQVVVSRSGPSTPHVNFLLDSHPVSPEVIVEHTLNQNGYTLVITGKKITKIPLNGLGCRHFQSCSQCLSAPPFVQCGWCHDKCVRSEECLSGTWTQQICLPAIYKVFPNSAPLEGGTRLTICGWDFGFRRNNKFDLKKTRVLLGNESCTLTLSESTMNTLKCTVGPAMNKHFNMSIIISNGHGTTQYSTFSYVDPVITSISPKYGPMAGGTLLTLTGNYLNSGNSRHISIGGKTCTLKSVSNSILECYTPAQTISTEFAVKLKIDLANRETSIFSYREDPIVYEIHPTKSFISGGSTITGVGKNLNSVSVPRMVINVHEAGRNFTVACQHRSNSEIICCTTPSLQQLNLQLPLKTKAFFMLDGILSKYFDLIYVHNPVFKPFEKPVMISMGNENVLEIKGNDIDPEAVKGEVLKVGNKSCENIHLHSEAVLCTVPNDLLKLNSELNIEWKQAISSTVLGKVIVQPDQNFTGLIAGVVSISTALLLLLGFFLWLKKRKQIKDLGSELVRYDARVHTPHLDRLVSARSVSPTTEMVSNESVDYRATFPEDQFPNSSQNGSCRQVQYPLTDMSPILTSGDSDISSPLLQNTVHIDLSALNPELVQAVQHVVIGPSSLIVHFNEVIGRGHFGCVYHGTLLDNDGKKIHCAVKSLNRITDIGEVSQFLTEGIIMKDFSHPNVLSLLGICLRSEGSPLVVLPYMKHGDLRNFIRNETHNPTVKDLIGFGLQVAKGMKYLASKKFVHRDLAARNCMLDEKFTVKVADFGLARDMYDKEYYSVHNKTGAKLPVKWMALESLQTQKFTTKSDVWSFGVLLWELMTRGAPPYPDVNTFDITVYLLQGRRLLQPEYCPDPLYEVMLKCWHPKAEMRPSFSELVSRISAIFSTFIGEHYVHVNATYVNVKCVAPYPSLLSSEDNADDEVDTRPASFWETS

With `[2H]C([2H])(c1ccnc(N)c1)N1CCc2c(NC(=O)Nc3cc(Cl)ccc3OC)cccc21` [Example 1, 1-[1-[(2-Amino-4-pyridyl)-dideuteriomethyl]indolin-4-yl]-3-(5-chloro-2-methoxyphenyl)urea], the remaining activity at 0.1 µM in test [1] was less than 70%. Besides, in test [2], the “% C-Met kinase activity remains” value is “B (the percentage is greater or equal to 70%)”.

With `[2H]C([2H])([2H])Oc1ccc(Cl)cc1NC(=O)Nc1cccc2c1CCN2C([2H])([2H])c1ccnc(N)c1` [Example 3, 1-[1-[(2-Amino-4-pyridyl)-dideuteriomethyl]indolin-4-yl]-3-[5-chloro-2-(trideuteriomethoxy)phenyl]urea], the remaining activity at 0.1 µM in test [1] is not below 70%. The “% C-Met kinase activity remains” value in test [2] is given as “A (the percentage of kinase activity remains is below 70%)”.

For `[2H]C([2H])([2H])Oc1ccc(Cl)cc1NC(=O)Nc1cccc2c1ccn2C([2H])([2H])c1ccnc(N)c1` [Example 4, 1-[1-[(2-amino-4-pyridyl)-dideuteriomethyl]indol-4-yl]-3-[5-chloro-2-(trideuteriomethoxy)phenyl]urea], in test [1], the remaining activity at 0.1 µM was not below 70%. The “% C-Met kinase activity remains” value in test [2] is reported as “A (the percentage of kinase activity remains is below 70%)”.

Regarding `[2H]C([2H])([2H])Oc1ccc(Cl)cc1NC(=O)Nc1cccc2c1CCN2Cc1ccnc(N)c1` [Example 5, 1-[1-[(2-Amino-4-pyridyl)methyl]indolin-4-yl]-3-[5-chloro-2-(trideuteriomethoxy)phenyl]urea], in test [1], the remaining activity at 0.1 µM is less than 70%. Moreover, the “% C-Met kinase activity remains” value in test [2] is “A (the percentage of kinase activity remains is below 70%)”.

With `[2H]C([2H])([2H])Oc1ccc(Cl)cc1NC(=O)Nc1cccc2c1ccn2Cc1ccnc(N)c1` [Example 6, 1-[1-[(2-amino-4-pyridyl)methyl]indol-4-yl]-3-[5-chloro-2-(trideuteriomethoxy)phenyl]urea], in test [1], the remaining activity at 0.1 µM was less than 70%. Moreover, the “% C-Met kinase activity remains” value in test [2] is given as “A (the percentage of kinase activity remains is below 70%)”.

In the case of `Cl.[2H]C([2H])([2H])Oc1ccc(Cl)cc1NC(=O)Nc1cccc2c1CCN2C([2H])([2H])c1ccnc2[nH]ccc12` [Example 7, 1-[5-Chloro-2-(trideuteriomethoxy)phenyl]-3-[1-[dideuterio(1H-pyrrolo[2,3-b]pyridin-4-yl)methyl]indolin-4-yl]urea hydrochloride], in test [1], the remaining activity at 0.1 µM was less than 70%. In addition, the “% C-Met kinase activity remains” value in test [2] is on record as “A (the percentage of kinase activity remains is below 70%)”.

As to `Cl.[2H]C([2H])([2H])Oc1ccc(Cl)cc1NC(=O)Nc1cccc2c1ccn2C([2H])([2H])c1ccnc2[nH]ccc12` [Example 8, 1-[5-chloro-2-(trideuteriomethoxy)phenyl]-3-[1-[dideuterio(1H-pyrrolo[2,3-b]pyridin-4-yl)methyl]indol-4-yl]urea hydrochloride], the remaining activity at 0.1 µM in test [1] was less than 70%. For the same compound, the “% C-Met kinase activity remains” value in test [2] is “A (the percentage of kinase activity remains is below 70%)”.

Turning to `[2H]C([2H])(c1ccnc2[nH]ccc12)N1CCc2c(NC(=O)Nc3cc(Cl)ccc3OC)cccc21` [Example 9, 1-(5-Chloro-2-methoxyphenyl)-3-[1-[dideuterio(1H-pyrrolo[2,3-b]pyridin-4-yl)methyl]indolin-4-yl]urea hydrochloride], the remaining activity at 0.1 µM in test [1] is less than 70%. For the same compound, in test [2], the “% C-Met kinase activity remains” value is listed as “A (the percentage of kinase activity remains is below 70%)”.

In the case of `[2H]C([2H])(c1ccnc2[nH]ccc12)n1ccc2c(NC(=O)Nc3cc(Cl)ccc3OC)cccc21` [Example 10, 1-(5-chloro-2-methoxyphenyl)-3-[1-[dideuterio(1H-pyrrolo[2,3-b]pyridin-4-yl)methyl]indol-4-yl]urea hydrochloride], the remaining activity at 0.1 µM in test [1] is not below 70%. The “% C-Met kinase activity remains” value in test [2] is reported as “A (the percentage of kinase activity remains is below 70%)”.

Regarding `[2H]C([2H])(c1ccnc2[nH]ccc12)N1CCc2c(NC(=O)Nc3cc(Cl)ccc3F)cccc21` [Example 11, 1-(5-Chloro-2-fluorophenyl)-3-[1-[dideuterio(1H-pyrrolo[2,3-b]pyridin-4-yl)methyl]indolin-4-yl]urea hydrochloride], in test [1], the remaining activity at 0.1 µM is less than 70%. The “% C-Met kinase activity remains” value in test [2] is recorded as “A (the percentage of kinase activity remains is below 70%)”.

Turning to `[2H]C([2H])(c1ccnc2[nH]ccc12)n1ccc2c(NC(=O)Nc3cc(Cl)ccc3F)cccc21` [Example 12, 1-(5-chloro-2-fluorophenyl)-3-[1-[dideuterio(1H-pyrrolo[2,3-b]pyridin-4-yl)methyl]indol-4-yl]urea hydrochloride], the remaining activity at 0.1 µM in test [1] is not below 70%. Besides, the “% C-Met kinase activity remains” value in test [2] is given as “A (the percentage of kinase activity remains is below 70%)”.

Take `[2H]C([2H])(c1ccnc2[nH]ccc12)N1CCc2c(NC(=O)Nc3cccc(C)c3)cccc21` [Example 13, 1-[1-[Dideuterio(1H-pyrrolo[2,3-b]pyridin-4-yl)methyl]indolin-4-yl]-3-(m-tolyl)urea hydrochloride]: in test [1], the remaining activity at 0.1 µM is less than 70%. Moreover, the “% C-Met kinase activity remains” value in test [2] is listed as “A (the percentage of kinase activity remains is below 70%)”.

Take `[2H]C([2H])(c1ccnc2[nH]ccc12)n1ccc2c(NC(=O)Nc3cccc(C)c3)cccc21` [Example 14, 1-[1-[dideuterio(1H-pyrrolo[2,3-b]pyridin-4-yl)methyl]indol-4-yl]-3-(m-tolyl)urea hydrochloride]: in test [1], the remaining activity at 0.1 µM is less than 70%. For the same compound, the “% C-Met kinase activity remains” value in test [2] is reported as “A (the percentage of kinase activity remains is below 70%)”.

As to `[2H]C(c1c[nH]c2ncccc12)N1CCc2c(NC(=O)Nc3cc(Cl)ccc3OC([2H])([2H])[2H])cccc21` (stereo not shown) [Example 15, 1-[5-Chloro-2-(trideuteriomethoxy)phenyl]-3-[1-[deuterio(1H-pyrrolo[2,3-b]pyridin-3-yl)methyl]indolin-4-yl]urea], the remaining activity at 0.1 µM in test [1] was not below 70%. For the same compound, the “% C-Met kinase activity remains” value in test [2] is recorded as “A (the percentage of kinase activity remains is below 70%)”.

In the case of `[2H]C(c1c[nH]c2ncccc12)n1ccc2c(NC(=O)Nc3cc(Cl)ccc3OC([2H])([2H])[2H])cccc21` (stereo not shown) [Example 16, 1-[5-chloro-2-(trideuteriomethoxy)phenyl]-3-[1-[deuterio(1H-pyrrolo[2,3-b]pyridin-3-yl)methyl]indol-4-yl]urea], the remaining activity at 0.1 µM in test [1] was not below 70%. Further, the “% C-Met kinase activity remains” value in test [2] is recorded as “A (the percentage of kinase activity remains is below 70%)”.

`[2H]C(c1c[nH]c2ncccc12)N1CCc2c(NC(=O)Nc3cc(Cl)ccc3OC)cccc21` (stereo not shown) [Example 17, 1-(5-Chloro-2-methoxyphenyl)-3-[1-[deuterio(1H-pyrrolo[2,3-b]pyridin-3-yl)methyl]indolin-4-yl]urea]: the remaining activity at 0.1 µM in test [1] was less than 70%. In test [2], the “% C-Met kinase activity remains” value is recorded as “A (the percentage of kinase activity remains is below 70%)”.

For the compound `[2H]C(c1c[nH]c2ncccc12)n1ccc2c(NC(=O)Nc3cc(Cl)ccc3OC)cccc21` (stereo not shown) [Example 18, 1-(5-chloro-2-methoxyphenyl)-3-[1-[deuterio(1H-pyrrolo[2,3-b]pyridin-3-yl)methyl]indol-4-yl]urea], the remaining activity at 0.1 µM in test [1] was less than 70%. The “% C-Met kinase activity remains” value in test [2] was “A (the percentage of kinase activity remains is below 70%)”.

Source of the values: US20130165475A1, “DEUTERIUM-ENRICHED HETEROCYCLIC COMPOUNDS AS KINASE INHIBITORS” (ASCEPION PHARMACEUTICALS, INC., priority 2010, published 2013).
